Tested on: mouse hippocampal slices
Assay: Basal synaptic transmission: fEPSP in hippocampal CA1 region in the presence of Mg2+
Format: cell-based
Settings: amiloride 100 μM
Procedure: FIG. 6. Representative field-EPSPs and summary data showing the lack of inhibition by amiloride on basal synaptic transmission. In the presence of Mg^2+ (1.0 mM), stimulation of Schaffer collaterals induced field excitatory postsynaptic potential (fEPSP) in the CA1 region of the hippocampus.
Preparation of hippocampal slices and brain slice recording. Hippocampal slices were obtained from 8- to 10-week-old mice. The protocol for brain-slice recording was approved by the Institutional Animal Care and Use Committee of Legacy Research. Animals were deeply anesthetized with isoflurane and decapitated. Brains were quickly removed and placed in ice-cold solution that contained: 125 mM sucrose, 2.5 mM KCl, 26 mM NaHCO3, 1.25 mM NaHPO4, 6.0 mM […], 0.5 mM CaCl2, and 10 mM glucose, and was saturated with 95% O2 and 5% CO2 (pH 7.4). […]
Following ˜60 min of incubation at room temperature, individual slices were transferred to a submerged slice chamber with a volume of 0.5 mL (Warner Instruments, Hamden, Conn.) and perfused with oxygenated aCSF (35° C.) at a rate of 3-4 mL/min. […] The population spike and the field excitatory postsynaptic potentials (fEPSP) were recorded in stratum pyramidale and striatum radiatum of hippocampal CA1 region, by stimulating Schaffer Collaterals.

With `NC(N)=NC(=O)c1nc(Cl)c(N)nc1N` [amiloride, 3,5-diamino-6-chloro-N(diaminomethylidene)pyrazine-2-carboxamide] the “effect on amplitude or slope of normal fEPSP” value was “did not affect”.

Reference: US7892764B2, “System for seizure suppression” (priority 2006, dated 2011)
